Results from patent US11111259B2, “Acylsulfonamide derivatives for treating senescence-associated diseases and disorders” (Unity Biotechnology, Inc., priority 2015, dated 2021).

How the values were obtained:
BCL-xL = BCL-xL (Homo sapiens, UniProt Q07817); test: BCL-binding assay (AlphaLISA competition, BAD peptide); conditions: 6xHis BCL-xL with biotinylated BAD peptide, 24 hr incubation
Procedure: (§1) Compounds were prepared as 400× DMSO stock solutions in a 1:4 dilution series then diluted […] in assay buffer (25 mM HEPES pH 7.5, 100 mM NaCl, 0.1% BSA, 0.005% Tween) immediately before use. Aliquots of 400 nM 6xHis-tagged BCL-xL, BCL-2, and BCL-w were thawed on ice and diluted to 0.4 (BCL-XL) or 0.8 (BCL-W and 2) nM in assay buffer. Aliquots of biotinylated BIM and BAD peptides were diluted in assay buffer to 120 and 60 nM respectively. Ten microliters of biotinylated peptide were added to wells of a 96-well PCR plate, followed by ten microliters of inhibitor, then ten microliters of BCL protein, BCL-XL with BAD and BCL-W/2 with BIM. The plates were sealed and incubated at room temperature. After 24 hr, 0.16 μg Anti-His conjugated AlphaLISA acceptor beads were added in 5 μL assay buffer. After one hour at room temperature, 0.16 μg AlphaScreen streptavidin donor beads were added in 5 μL assay buffer and plates were incubated an additional 30 min in the dark. Two 17 μL aliquots of each reaction were plated in a Perkin Elmer 384-well proxiplate, and plates were scanned for using a Perkin Elmer Enspire plate reader. Kd values were calculated in Prism Graph Pad using a one site competitive binding model and previously determined Kd values for each protein peptide pair. […]

BCL-2 = BCL-2 (Homo sapiens, UniProt P10415); test: BCL-binding assay (AlphaLISA competition, BIM peptide); conditions: 6xHis BCL-2 with biotinylated BIM peptide, 24 hr incubation
Procedure: as §1

BCL-w = target: T1, BCL-w (Homo sapiens, UniProt Q92843); test: as above; conditions: 6xHis BCL-w with biotinylated BIM peptide, 24 hr incubation
T1 sequence (Q92843 1-193): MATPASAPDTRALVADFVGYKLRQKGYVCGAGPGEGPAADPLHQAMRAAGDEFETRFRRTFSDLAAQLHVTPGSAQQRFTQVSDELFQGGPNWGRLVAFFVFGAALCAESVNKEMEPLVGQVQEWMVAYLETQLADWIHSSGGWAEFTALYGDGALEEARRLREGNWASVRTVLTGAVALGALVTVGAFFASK
Procedure: as §1

[1] = test system: IMR-90 SnC (irradiated senescent IMR90 cells); test: Senolysis assay (CellTiter-Glo viability); assay type: cell-based, human; conditions: for EC50: Homo sapiens, IMR-90, light or radiation study, 72 h, X-ray irradiated senescent IMR90 cells, viability three days after compound addition; for SI (ratio of EC50 of non-senescent cells to EC50 of senescent cells): IMR90 non-senescent vs senescent cells
Procedure: IMR90 cells are maintained in DMEM supplemented with 10% FBS. To prepare a senescent population, cells were trypsinized, diluted to 50,000 per mL, and irradiated with 10-15 Gy of X-ray irradiation. Irradiated cells were plated at 5000 cells per well in one third of a 96-well plate and maintained for two weeks prior to the assay. Four days prior to the assay, non-senescent IMR90s were plated at 2500 per well in the second third of the plate. One day prior to the assay, 2500 non-senescent cells were plated in the final third of the plate. Compounds were prepared as a 200×DMSO dilution series then diluted to 1× in media immediately before adding to cells. Three days after compound addition, cell viability was measured using CellTiter-Glo reagent from Promega. Viability was calculated relative to a DMSO control and EC50 values are calculated in Prism GraphPad. […] The selectivity (SI) of the compounds described herein is a ratio of the EC50 of non-senescent cells to the EC50 of senescent cells. The SI of the compounds described herein is 10 or above for “A” selectivity, between 2 and 10 for “B” selectivity or 2 or less for “C” selectivity.

BCL-2, sequence (P10415 whole entry, species assumed): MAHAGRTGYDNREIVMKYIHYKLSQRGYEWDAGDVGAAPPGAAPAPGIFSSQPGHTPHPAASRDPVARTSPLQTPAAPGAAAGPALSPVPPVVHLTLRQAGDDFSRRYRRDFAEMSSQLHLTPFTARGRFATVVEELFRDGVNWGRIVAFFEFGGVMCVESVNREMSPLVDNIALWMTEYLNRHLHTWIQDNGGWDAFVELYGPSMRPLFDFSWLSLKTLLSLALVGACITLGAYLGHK
BCL-xL, sequence (Q07817 whole entry, species assumed): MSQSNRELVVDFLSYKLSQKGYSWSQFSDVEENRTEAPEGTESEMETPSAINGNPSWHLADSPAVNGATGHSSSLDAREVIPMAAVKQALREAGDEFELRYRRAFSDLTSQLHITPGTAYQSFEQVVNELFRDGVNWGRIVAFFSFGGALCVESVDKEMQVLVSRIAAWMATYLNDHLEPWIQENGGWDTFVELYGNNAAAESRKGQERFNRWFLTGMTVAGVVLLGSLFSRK

Structure (SMILES): CC1(C)CCC(c2ccc(Cl)cc2)=C(CN2CCN(c3ccc(C(=O)NS(=O)(=O)c4ccc(N[C@H](CCN5CCN(CCP(=O)(O)OCOC(=O)C(C)(C)C)CC5)CSc5ccccc5)c(S(=O)(=O)C(F)(F)F)c4)cc3)CC2)C1 [Compound 45, (((2-(4-((R)-3-((4-(N-(4-(4-((4′-chloro-4,4-dimethyl-3,4,5,6-tetrahydro-[1,1′-biphenyl]-2-yl)methyl)piperazin-1-yl)benzoyl)sulfamoyl)-2-((trifluoromethyl)sulfonyl)phenyl)amino)-4-(phenylthio)butyl)piperazin-1-yl)ethyl)(hydroxy)phosphoryl)oxy)methyl pivalate]
- Kd (BCL-xL): < 1 nM
- Kd (BCL-2): < 1 nM
- Kd (BCL-w): 1 to 10 nM
- EC50 [1]: > 10000 nM

Structure (SMILES): COP(=O)(CCCN1CCN(CC[C@H](CSc2ccccc2)Nc2ccc(S(=O)(=O)NC(=O)c3ccc(N4CCN(CC5=C(c6ccc(Cl)cc6)CCC(C)(C)C5)CC4)cc3)cc2S(=O)(=O)C(F)(F)F)CC1)OC [Compound 24]
- Kd (BCL-xL): < 1 nM
- Kd (BCL-2): < 1 nM
- Kd (BCL-w): 1 to 10 nM
- EC50 [1]: < 1000 nM
- SI (ratio of EC50 of non-senescent cells to EC50 of senescent cells) [1]: A (10 or above)

Structure (SMILES): CCOP(=O)(CCCN1CCN(CC[C@H](CSc2ccccc2)Nc2ccc(S(=O)(=O)NC(=O)c3ccc(N4CCN(CC5=C(c6ccc(Cl)cc6)CCC(C)(C)C5)CC4)cc3)cc2S(=O)(=O)C(F)(F)F)CC1)OCOC(C)=O (some centres unmarked) [Compound 37]
- Kd (BCL-xL): < 1 nM
- Kd (BCL-2): < 1 nM
- Kd (BCL-w): 1 to 10 nM
- EC50 [1]: 1000 to 10000 nM
- SI (ratio of EC50 of non-senescent cells to EC50 of senescent cells) [1]: B (between 2 and 10)

Structure (SMILES): CCOP(=O)(CCCN1CCN(CC[C@H](CSc2ccccc2)Nc2ccc(S(=O)(=O)NC(=O)c3ccc(N4CCN(CC5=C(c6ccc(Cl)cc6)CCC(C)(C)C5)CC4)cc3)cc2S(=O)(=O)C(F)(F)F)CC1)OCOC(=O)C(C)(C)C (some centres unmarked) [Compound 33]
- Kd (BCL-xL): < 1 nM
- Kd (BCL-2): < 1 nM
- Kd (BCL-w): 1 to 10 nM
- EC50 [1]: > 10000 nM
- SI (ratio of EC50 of non-senescent cells to EC50 of senescent cells) [1]: B (between 2 and 10)

Structure (SMILES): CCOP(=O)(CC1CCN(CC[C@H](CSc2ccccc2)Nc2ccc(S(=O)(=O)NC(=O)c3ccc(N4CCN(CC5=C(c6ccc(Cl)cc6)CCC(C)(C)C5)CC4)cc3)cc2S(=O)(=O)C(F)(F)F)CC1)OCOC(=O)C(C)(C)C (stereo partly drawn) [Compound 48, (((1-((R)-3-((4-(N-(4-(4-((4′-chloro-4,4-dimethyl-3,4,5,6-tetrahydro-[1,1′-biphenyl]-2-yl)methyl)piperazin-1-yl)benzoyl)sulfamoyl)-2-((trifluoromethyl)sulfonyl)phenyl)amino)-4-(phenylthio)butyl)piperidin-4-yl)methyl)(ethoxy)phosphoryl)oxy)methyl pivalate]
- Kd (BCL-xL): < 1 nM
- Kd (BCL-2): < 1 nM
- Kd (BCL-w): 1 to 10 nM
- EC50 [1]: < 1000 nM
- SI (ratio of EC50 of non-senescent cells to EC50 of senescent cells) [1]: A (10 or above)

Structure (SMILES): CCOP(=O)(O)CN1CCN(CC[C@H](CSc2ccccc2)Nc2ccc(S(=O)(=O)NC(=O)c3ccc(N4CCN(Cc5ccccc5-c5ccc(Cl)cc5)CC4)cc3)cc2S(=O)(=O)C(F)(F)F)CC1 [Compound 53, Ethyl hydrogen ((4-((R)-3-((4-(N-(4-(4-((4′-chloro-[1,1′-biphenyl]-2-yl)methyl)piperazin-1-yl)benzoyl)sulfamoyl)-2-((trifluoromethyl)sulfonyl)phenyl)amino)-4-(phenylthio)butyl)piperazin-1-yl)methyl)phosphonate]
- Kd (BCL-xL): < 1 nM
- Kd (BCL-2): < 1 nM
- Kd (BCL-w): < 1 nM
- EC50 [1]: > 10000 nM

Structure (SMILES): COP(=O)(CN1CCN(CC[C@H](CSc2ccccc2)Nc2ccc(S(=O)(=O)NC(=O)c3ccc(N4CCN(CC5=C(c6ccc(Cl)cc6)CCC(C)(C)C5)CC4)cc3)cc2S(=O)(=O)C(F)(F)F)CC1)OC [Compound 16]
- Kd (BCL-xL): < 1 nM
- Kd (BCL-2): < 1 nM
- Kd (BCL-w): 1 to 10 nM
- EC50 [1]: < 1000 nM
- SI (ratio of EC50 of non-senescent cells to EC50 of senescent cells) [1]: A (10 or above)

Structure (SMILES): CCOP(=O)(CN1CCN(CC[C@H](CSc2ccccc2)N(c2ccc(S(=O)(=O)NC(=O)c3ccc(N4CCN(CC5=C(c6ccc(Cl)cc6)CCC(C)(C)C5)CC4)cc3)cc2S(=O)(=O)C(F)(F)F)S(C)(=O)=O)CC1)OCC [Compound 29]
- Kd (BCL-xL): 10 to 50 nM
- Kd (BCL-2): 10 to 50 nM
- Kd (BCL-w): > 50 nM
- EC50 [1]: 1000 to 10000 nM
- SI (ratio of EC50 of non-senescent cells to EC50 of senescent cells) [1]: C (2 or less)

Structure (SMILES): CCOP(=O)(CN1CCN(CC[C@H](CSc2ccccc2)Nc2ccc(S(=O)(=O)NC(=O)c3ccc(N4CCN(CC5=C(c6ccc(Cl)cc6)CCC(C)(C)C5)CC4)cc3)cc2S(=O)(=O)C(F)(F)F)CC1)OC(C)(C)C (some centres unmarked) [Compound 26]
- Kd (BCL-xL): 10 to 50 nM
- Kd (BCL-2): > 50 nM
- Kd (BCL-w): > 50 nM
- EC50 [1]: > 10000 nM

Structure (SMILES): CCOP(=O)(CCN(C)CC[C@H](CSc1ccccc1)Nc1ccc(S(=O)(=O)NC(=O)c2ccc(N3CCN(CC4=C(c5ccc(Cl)cc5)CCC(C)(C)C4)CC3)cc2)cc1S(=O)(=O)C(F)(F)F)OCC [Compound 10]
- Kd (BCL-xL): < 1 nM
- Kd (BCL-2): < 1 nM
- Kd (BCL-w): 1 to 10 nM
- EC50 [1]: 1000 to 10000 nM
- SI (ratio of EC50 of non-senescent cells to EC50 of senescent cells) [1]: A (10 or above)

Structure (SMILES): CCOP(=O)(CN1CCN(CC[C@H](C[S+]([O-])c2ccccc2)Nc2ccc(S(=O)(=O)NC(=O)c3ccc(N4CCN(CC5=C(c6ccc(Cl)cc6)CCC(C)(C)C5)CC4)cc3)cc2S(=O)(=O)C(F)(F)F)CC1)OCC (stereo partly drawn) [Compound 44, Diethyl ((4-((3R)-3-((4-(N-(4-(4-((4′-chloro-4,4-dimethyl-3,4,5,6-tetrahydro-[1,1′-biphenyl]-2-yl)methyl)piperazin-1-yl)benzoyl)sulfamoyl)-2-((trifluoromethyl)sulfonyl)phenyl)amino)-4-(phenylsulfinyl)butyl)piperazin-1-yl)methyl)phosphonate]
- Kd (BCL-xL): < 1 nM
- Kd (BCL-2): < 1 nM
- Kd (BCL-w): 10 to 50 nM
- EC50 [1]: 1000 to 10000 nM
- SI (ratio of EC50 of non-senescent cells to EC50 of senescent cells) [1]: B (between 2 and 10)

Structure (SMILES): CCOP(=O)(C=C1CCN(CC[C@H](CSc2ccccc2)Nc2ccc(S(=O)(=O)NC(=O)c3ccc(N4CCN(CC5=C(c6ccc(Cl)cc6)CCC(C)(C)C5)CC4)cc3)cc2S(=O)(=O)C(F)(F)F)CC1)OCC [Compound 41, Diethyl (R)-((1-(3-((4-(N-(4-(4-((4′-chloro-4,4-dimethyl-3,4,5,6-tetrahydro-[1,1′-biphenyl]-2-yl)methyl)piperazin-1-yl)benzoyl)sulfamoyl)-2-((trifluoromethyl)sulfonyl)phenyl)amino)-4-(phenylthio)butyl)piperidin-4-ylidene)methyl)phosphonate]
- Kd (BCL-xL): < 1 nM
- Kd (BCL-2): < 1 nM
- Kd (BCL-w): 1 to 10 nM
- EC50 [1]: < 1000 nM
- SI (ratio of EC50 of non-senescent cells to EC50 of senescent cells) [1]: A (10 or above)

Structure (SMILES): CCOP(=O)(CN1CCN(CC[C@H](CSc2ccccc2)Nc2ccc(S(=O)(=O)NC(=O)c3ccc(N4CCN(Cc5ccccc5-c5ccc(Cl)cc5)CC4)cc3)cc2S(=O)(=O)C(F)(F)F)CC1)OCOC(=O)C(C)(C)C (stereo partly drawn) [Compound 54, (((4-((R)-3-((4-(N-(4-(4-((4′-chloro-[1,1′-biphenyl]-2-yl)methyl)piperazin-1-yl)benzoyl)sulfamoyl)-2-((trifluoromethyl)sulfonyl)phenyl)amino)-4-(phenylthio)butyl)piperazin-1-yl)methyl)(ethoxy)phosphoryl)oxy)methyl pivalate]
- Kd (BCL-xL): < 1 nM
- Kd (BCL-2): < 1 nM
- Kd (BCL-w): 1 to 10 nM
- EC50 [1]: 1000 to 10000 nM
- SI (ratio of EC50 of non-senescent cells to EC50 of senescent cells) [1]: B (between 2 and 10)

Structure (SMILES): CCOP(=O)(O)CCN1CCN(CC[C@H](CSc2ccccc2)Nc2ccc(S(=O)(=O)NC(=O)c3ccc(N4CCN(CC5=C(c6ccc(Cl)cc6)CCC(C)(C)C5)CC4)cc3)cc2S(=O)(=O)C(F)(F)F)CC1 [Compound 14]
- Kd (BCL-xL): < 1 nM
- Kd (BCL-2): < 1 nM
- Kd (BCL-w): 1 to 10 nM
- EC50 [1]: > 10000 nM

Structure (SMILES): CC(C)OP(=O)(CCCN1CCN(CC[C@H](CSc2ccccc2)Nc2ccc(S(=O)(=O)NC(=O)c3ccc(N4CCN(CC5=C(c6ccc(Cl)cc6)CCC(C)(C)C5)CC4)cc3)cc2S(=O)(=O)C(F)(F)F)CC1)OC(C)C [Compound 27]
- Kd (BCL-xL): < 1 nM
- Kd (BCL-2): < 1 nM
- Kd (BCL-w): 1 to 10 nM
- EC50 [1]: > 10000 nM
- SI (ratio of EC50 of non-senescent cells to EC50 of senescent cells) [1]: C (2 or less)
